A short description of series [1]: solubility in carrier solvent. Format: physicochemical. Here is the method:
Experiments were carried out in 12-well flat-bottom polystyrene plates with 4-8 embryos per well in 1.0 ml of one-tenth strength MBS with 50 μg/ml gentamycin at 19° C. Staging of embryos was done according to the classification of Nieuwkoop and Faber. Embryos at stage 8.5-9 (late blastula stages prior to the debut of gastrulation at stage 10) or at the 2-cell stage (after the first cleavage division, Nieuwkoop and Faber stage 2), as indicated in the figures, were treated with a test compound or dimethylsulfoxide (DMSO) carrier solvent and maintained at 19° C. […] DMSO alone at this concentration had no detectable effect on the embryos. […] As with 0.1% DMSO, this concentration of DMF had no effect on development of the frog embryos. Each experiment was conducted in triplicate on at least three separate occasions for a total of 9 or more wells per treatment. Embryos were observed using a stereomicroscope and scored for defects or delayed development at set times (0, 3, 6, 9, 12, 24, 48, 72, and 96 hours) following treatment.

For a further series, the system named is Xenopus laevis embryos. As to the kind of experiment: frog embryo morphogenesis assay (scoring of developmental defects). It counts as in vivo. Particulars: Xenopus laevis; 72 hr after treatment; dose-response, 5 concentrations; read-out: EC50 with respect to the defective phenotype at 72 hr following treatment. An excerpt: In order to identify compounds that specifically perturb morphogenesis in the frog embryo, a suitable method for scoring embryos by characteristic defects was developed. A useful starting point was the “dorso-anterior index” (DAI). The DAI originally was constructed by adding new morphological characteristics to the older “index of axis deficiency” (S. R. Scharf et al., Dev. Biol., 99, 75-87 (1983)). The DAI is a scale of dorsoanterior development wherein embryos are assigned a score based on degree of dorsoanterior phenotype (K. R. Kao et al., Dev. Biol., 127, 64-77 (1988)). The scale encompasses a score of 0 (for the most axis-deficient or ventralized embryos) to 10 (for embryos with the most enhanced dorsoanterior structures), with a score of 5 signifying a normal embryo.
Because the DAI focuses only on dorsoanterior phenotypes, other categories were added to describe possible defects more comprehensively, with an emphasis on characteristics that are easily and unambiguously recognized in intact embryos, and that are diagnostic of possible effects on morphogenesis during gastrulation and neurulation. The most useful and readily scored categories that covered the most frequent deficiencies were: reduced anterior structures and microcephaly, delayed appearance or absence of eye pigmentation, overall shortness along the anteroposterior axis, bent axis, bent tail only, reduced posterior structures/tail, malformed or reduced fins, delayed or failed neural tube closure (neural fold fusion), abnormal pigmentation pattern, ventral swelling (edema), and delayed or abnormal visceral organogenesis and yolk resorption. In addition, blastopore closure, an earlier process that marks the completion of gastrulation, was observed.
In these tests, test compounds were added individually to wells each containing 4-8 embryos in 12-well plates. Embryos at stage 8.5-9, according to the classification of Nieuwkoop and Faber (P. I. Nieuwkoop et al., Normal Table of Xenopus laevis (Daudin). Amsterdam: North-Holland Publ.) (1967)), were used because these are late blastula stages before gastrulation begins at stage 10, which allowed focusing primarily on compounds that affect morphogenetic events in gastrulation and neurulation. These embryos, therefore, have undergone a midblastula transition at stage 8 (cleavage division 12) when zygotic transcription begins (J. Newport et al., Cell, 30, 675-686 (1982); J. Newport et al., Cell, 30, 687-696 (1982)) but have not yet started the morphogenetic movements of gastrulation.
Standard procedures were used in the care of animals, gamete preparation, fertilization of oocytes, and culture of embryos (B. K. Kay et al., Methods in Cell Biology, Volumn 36 (San Diego: Academic Press, Inc.) (1991)). In order to stimulate ovulation, female frogs were injected with 500 units of human chorionic gonadotropin (HCG). Eggs were squeezed from female frogs 12 hours later. Testes were removed from euthanized male frogs that had been primed with 50 units of HCG 4-6 hours earlier. The testes were stored at 4° C. in single strength Marc's Modified Ringer's solution with 50 μg/ml gentamycin and used for no more than 10 days. Small pieces of testes were macerated and spread over eggs for in vitro fertilization in Petri dishes. Fertilized eggs were placed in one-tenth strength Modified Barth's Saline (MBS) with 50 μg/ml gentamycin at constant temperature (19° C.) in a temperature-controlled incubator and development allowed to proceed under these conditions. Embryos were dejellied by briefly swirling them in a solution of 2% (w/v) L-cysteine, pH 8.0. The embryos then were rinsed extensively with one-tenth strength MBS to wash out the cysteine. Experiments were started within an hour of dejellying the embryos.
Experiments were carried out in 12-well flat-bottom polystyrene plates with 4-8 embryos per well in 1.0 ml of one-tenth strength MBS with 50 μg/ml gentamycin at 19° C. […]

Turning to `O=C(/C=C/c1c(F)c(F)c(F)c(F)c1F)N1C(=O)OC[C@@H]1Cc1ccccc1` [Compound 22], the “solubility in DMF versus DMSO” value in series [1] is given as “more soluble in DMF”.

In the case of `O=C(/C=C/c1ccc(O)cc1)N1C(=O)OC[C@@H]1Cc1ccccc1` [Compound 41], the EC50 in the series with Xenopus laevis embryos worked out at 27.1 µM. Also, the “solubility in DMF versus DMSO” value in series [1] is on record as “more soluble in DMF”.

Broadly, the EC50 is the midpoint of the concentration-response curve.

For the origin of these results see patent US7390826B2, “Inhibitors of animal cell motility and growth” (The Board of Trustees of The University of Illinois, priority 2002, dated 2008).
